Laboratory results: BigSolDB 2.1

O=C(O)c1cc2ccccc2[nH]1
Conditions | solubility (mole fraction)
in 1,4-dioxane, 286.35 K | 0.00276
in 1,4-dioxane, 291.25 K | 0.00343
in 1,4-dioxane, 297.05 K | 0.00427
in 1,4-dioxane, 301.95 K | 0.00476
in 1,4-dioxane, 306.95 K | 0.0052
in 1,4-dioxane, 312.15 K | 0.00592
in 1,4-dioxane, 317.25 K | 0.00636
in 1,4-dioxane, 321.65 K | 0.00689
in 1,4-dioxane, 326.55 K | 0.00728
in 1,4-dioxane, 331.95 K | 0.00791
in 1,4-dioxane, 336.65 K | 0.00866
in dichloromethane, 283.15 K | 0.000684
in dichloromethane, 287.15 K | 0.000724
in dichloromethane, 292.75 K | 0.000873
in dichloromethane, 295.65 K | 0.00104
in dichloromethane, 299.05 K | 0.00119
in dichloromethane, 302.65 K | 0.00134
in dichloromethane, 307.25 K | 0.00168
in dichloromethane, 313.15 K | 0.00224
in ethanol, 278.15 K | 0.0569
in ethanol, 283.15 K | 0.062
in ethanol, 287.95 K | 0.0666
in ethanol, 292.75 K | 0.0701
in ethanol, 297.95 K | 0.078
in ethanol, 303.05 K | 0.0816
in ethanol, 308.35 K | 0.0881
in ethanol, 313.25 K | 0.0974
in ethanol, 318.65 K | 0.102
in ethanol, 324.95 K | 0.116
in ethanol, 329.85 K | 0.12
in ethanol, 336.25 K | 0.135
in ethanol, 342.75 K | 0.148
in ethanol, 348.25 K | 0.154
in ethanol, 353.15 K | 0.165
in ethyl acetate, 284.05 K | 0.0433
in ethyl acetate, 290.45 K | 0.06
in ethyl acetate, 294.65 K | 0.0735
in ethyl acetate, 299.55 K | 0.0865
in ethyl acetate, 304.65 K | 0.1
in ethyl acetate, 309.35 K | 0.108
in ethyl acetate, 313.95 K | 0.116
in ethyl acetate, 318.65 K | 0.121
in ethyl acetate, 324.35 K | 0.128
in ethyl acetate, 328.75 K | 0.134
in ethyl acetate, 333.65 K | 0.14
in isopropanol, 278.35 K | 0.0412
in isopropanol, 285.15 K | 0.0525
in isopropanol, 291.05 K | 0.0606
in isopropanol, 298.15 K | 0.0701
in isopropanol, 305.55 K | 0.0855
in isopropanol, 310.15 K | 0.0949
in isopropanol, 315.75 K | 0.108
in isopropanol, 321.35 K | 0.119
in isopropanol, 328.65 K | 0.131
in isopropanol, 333.35 K | 0.149
in isopropanol, 338.75 K | 0.161
in isopropanol, 342.25 K | 0.171
in isopropanol, 348.15 K | 0.191
in isopropanol, 353.25 K | 0.201
in isopropanol, 358.15 K | 0.219
in methanol, 278.15 K | 0.0679
in methanol, 283.35 K | 0.0695
in methanol, 288.95 K | 0.0723
in methanol, 293.25 K | 0.0752
in methanol, 298.15 K | 0.0856
in methanol, 303.35 K | 0.0925
in methanol, 307.85 K | 0.102
in methanol, 312.95 K | 0.118
in methanol, 317.75 K | 0.135
in methanol, 323.15 K | 0.159
in methanol, 328.25 K | 0.189
in methanol, 333.15 K | 0.23
in n-butanol, 278.15 K | 0.0478
in n-butanol, 285.35 K | 0.0538
in n-butanol, 291.05 K | 0.0605
in n-butanol, 298.55 K | 0.0687
in n-butanol, 305.25 K | 0.0758
in n-butanol, 310.75 K | 0.0832
in n-butanol, 315.15 K | 0.0909
in n-butanol, 321.75 K | 0.101
in n-butanol, 328.35 K | 0.112
in n-butanol, 333.95 K | 0.125
in n-butanol, 338.15 K | 0.14
in n-butanol, 342.45 K | 0.143
in n-butanol, 348.25 K | 0.16
in n-butanol, 353.45 K | 0.174
in n-butanol, 358.15 K | 0.19
in n-propanol, 278.25 K | 0.0437
in n-propanol, 285.45 K | 0.0521
in n-propanol, 291.35 K | 0.0588
in n-propanol, 298.15 K | 0.068
in n-propanol, 305.75 K | 0.0801
in n-propanol, 311.25 K | 0.088
in n-propanol, 317.75 K | 0.0993
in n-propanol, 322.15 K | 0.105
in n-propanol, 328.05 K | 0.115
in n-propanol, 333.55 K | 0.128
in n-propanol, 339.15 K | 0.138
in n-propanol, 344.85 K | 0.151
in n-propanol, 349.75 K | 0.162
in n-propanol, 353.15 K | 0.176
in n-propanol, 358.15 K | 0.18
in toluene, 287.85 K | 0.00052
in toluene, 293.65 K | 0.000645
in toluene, 297.95 K | 0.000722
in toluene, 302.85 K | 0.000786
in toluene, 307.05 K | 0.000898
in toluene, 311.55 K | 0.000989
in toluene, 313.55 K | 0.00104
in toluene, 317.45 K | 0.00113
in toluene, 325.15 K | 0.00155
in toluene, 337.85 K | 0.00295
in toluene, 342.55 K | 0.00379
in toluene, 348.25 K | 0.00427
in toluene, 360.15 K | 0.00642
in water, 293.15 K | 6.79e-05
in water, 298.15 K | 6.88e-05
in water, 303.15 K | 7.03e-05
in water, 308.05 K | 7.17e-05
in water, 312.65 K | 7.88e-05
in water, 318.15 K | 9.36e-05
in water, 323.15 K | 0.000115
in water, 328.15 K | 0.000149
in water, 333.15 K | 0.0002
in water, 338.15 K | 0.00028
in water, 343.15 K | 0.000409
in water, 348.15 K | 0.000616
in water, 353.15 K | 0.000962
in water, 358.15 K | 0.00155
